Earlier results on one molecule are cited in patent US11000594B2, “Composition comprising an organic liquid diluent and a cellulose ether of very low viscosity” (Dow Global Technologies LLC, priority 2012, dated 2021).

Converted amounts (≈) assume the structure as drawn.

On to `COC1=CC(=O)C[C@@H](C)[C@]12Oc1c(Cl)c(OC)cc(OC)c1C2=O` [Griseofulvin], for which the water solubility was 8.54 µg/mL (≈ 24.2 µM).
